Data set [1] in a line: Zn^2+ titration of ZIGIRs by fluorescence emission (Hill plot). Format: binding. As to the method:
(§1) UV-Vis spectra were recorded in a 1-cm path quartz cell on a Shimadzu 2401 PC spectrometer. Fluorescence excitation and emission spectra were recorded on a Fluorolog 3 spectrometer (Jobin-Yvon Horiba, Edison, N.J.). Zinc titration was performed by adding ZIGIRs (0.5 μM final concentration) to buffered Zn^2+ solutions containing 100 mM HEPES (pH 7.4). Nitrilotriacetic acid (NTA, 10 mM) and varying concentrations of ZnSO4 (0-9 mM) were mixed to reach free Zn^2+ concentrations between 0.1 nM and 40 nM (Li et al., 2011). Zn^2+ concentrations above 40 nM were controlled by iminodiacetate (IDA, 10 mM) and varying amounts of ZnSO4 (0-9.7 mM) in 100 mM HEPES (pH 7.4; Sasaki et al., 2011). To determine Zn^2+ binding dissociation constants (Kd(Zn^2+)), the Zn^2+ titration data were fitted to the least square exponential equation (Prism 7). Fluorescence quantum yields of ZIGIRs at pH 7.5 were determined using rhodamine 6G as the reference (Φfl=0.94 in MeOH; Magde et al., 2002). An example in shown FIGS. 11A0B. To examine the pH sensitivity of ZIGIRs, the fluorescence emission spectra was recorded from pH 3-9.4 in either nominally Zn^2+-free solutions containing 5 mM iminodiacetate or in 25 μM ZnSO4 solutions. The pH was controlled with 10 mM pH buffers including chloroacetic acid (pH 3.1), acetate (pH 4.1 and 5.0), 2-morpholinoethanesulfonic acid (MES, pH 6.14), HEPES (pH 7.5) and N-cyclohexyl-2-aminoethanesulfonic acid (CHES, pH 9.4).

Data set [2] in a line: Photochemical characterization of ZIGIRs in vitro (absorption, emission, quantum yield). The following applies: for ε (extinction coefficient): in M-1·cm-1 (unit assumed); for ϕfl × ε (fluorescence brightness): in M^-1 cm^-1 (unit assumed). In kind it is physicochemical. As to the method:
as §1

A short description of data set [3]: Metal ion selectivity of fluorescence response. Format: physicochemical. The following applies: 1 μM sensor, 10 μM TPEN; against Na^+, K^+, Ca^2+, Mg^2+, Fe^2+, Ni^2+, Co^2+, Cu^2+, Mn^2+. The method, then:
To study the metal selectivity, the fluorescence of ZIGIR-1 (1 μM) or ZIGIR-2 (1 μM) was measured in the presence of 10 μM TPEN and an excess of metal ion including 1 mM KCl, 1 mM NaCl, 1 mM CaSO4, 1 mM MgSO4, 15 μM MnSO4, 15 μM FeSO4, 15 μM NiSO4, 15 μM CoCl2, 15 μM CuSO4, 15 μM CdSO4 or 15 μM ZnSO4. The emission intensity was normalized to that of 15 μM ZnSO4 (100%).

The next data set concerns MIN-6 β cells. Briefly: Confocal imaging of ZIGIR-labeled live β cells. In kind it is cell-based, mouse. As to the method: To assess ZIGIRs' ability for imaging granular Zn^2+ in living cells, an insulin secreting β cell (MIN-6 cell) was labeled with ZIGIRs. After dye loading (0.5 μM for 15 min) and washing, cells were imaged by confocal laser scanning microscopy (CLSM). […] After raising cellular Zn^2+ level by adding a Zn^2+ ionophore (pyrithione, 10 μM) and Zn^2+ (20 μM), a drastic enhancement of ZIGIR-2 signal was observed. […] Subsequent washout of zinc/pyrithione and addition of a Zn^2+ chelator TPEN depleted cellular Zn^2+ activity and dampened ZIGIR-2 intensity to nearly the background level (FIGS. 6D & 6E). Overall ZIGIR-2 intensity increased about 12-fold going from the low Zn^2+ (TPEN) to the high Zn^2+ state (Zn^2+/pyrithione), with a cell-to-cell variation of 12.04±4.8 fold (mean±SD, N=20 cells).
MIN-6 β cells were cultured as previously described (Li et al., 2011). HEK293 cells were cultured in DMEM medium supplemented with 10% FBS and 1% Penicillin/Streptomycin. T47D cells were cultured in RPMI-1640 medium supplemented with 10% FBS, 0.5% non-essential amino acids, 1 mM sodium pyruvate, 10 μg/mL geneticin and 0.01 mg/mL insulin. H1299 cells were cultured in RPMI-1640 medium supplemented with 10% FBS. All cells were maintained at 37° C. with 5% CO2. For cell imaging, cells were seeded in 35-mm petri dishes with glass bottoms (MatTek) and cultured for ˜24 hours to reach ˜50% confluence. Prior to labeling, cells were washed with a secretion assay buffer (SAB) containing 114 mM NaCl, 4.7 mM KCl, 1.2 mM KH2PO4, 2.5 mM CaCl2, 1.16 mM MgSO4, 3 mM glucose, and 20 mM Hepes (pH 7.4). Cells were then incubated with ZIGIRs (0.5-1 μM) in SAB at 37° C. for 15 min, and washed with SAB before imaging on a Zeiss LSM 780 confocal microscope using 561 nm laser for exciting ZIGIR-2 (Em 570-650 nm) and 514 nm laser for exciting ZIGIR-1 (Em 516-650 nm). LysoTracker Green (ThermoFisher Scientific) was used at 0.4 μM to label acidic organelles and was added to cells <5 min before imaging. […] ZIGIR colocalization with LysoTracker Green was analyzed and quantified with JACoP plugin of ImageJ.

The values that follow come from US11649228B2, “Zinc indicators for cellular imaging” (The Board of Regents of the University of Texas System, priority 2018, dated 2023).

SMILES strings stand for the structures.

`CN(C)c1ccc2c(-c3ccc(NCCN(CCc4ccccn4)Cc4ccccn4)cc3C(=O)[O-])c3ccc(=[N+](C)C)cc-3oc2c1` [ZIGIR-2]: the “FC (fold change in fluorescence brightness ϕfl×ε from Zn^2+-free to Zn^2+-bound state)” value in data set [1] is listed as 34. For the same molecule, the affinity in data set [1] (100 mM HEPES pH 7.4), expressed as Kd, was 310 nM. In data set [1] (Table 2), the equilibrium dissociation constant (Kd) turned out to be 810 nM and the “Zn^2+ response (fold change)” value turned out to be 34×. In data set [2], the absorption maximum result is “around 555 nm” and the emission maximum was about 580 nm. In data set [2] (Zn^2+ bound), the “λabd^max” value is recorded as 549 nm, the “λem^max” value is 580 nm, the “ϕfl (fluorescence quantum yield)” value turned out to be 0.26 and the “ε (extinction coefficient)” value is 93,600. The “ϕfl × ε (fluorescence brightness)” value in data set [2] (Zn^2+ bound) is recorded as 24,336. For the same molecule, in data set [2] (Zn^2+ free), the “λabd^max” value is 546 nm, the “λem^max” value was found to be 572 nm, the “ϕfl (fluorescence quantum yield)” value came out at 0.008 and the “ε (extinction coefficient)” value is 88,400. Also, in data set [2] (Zn^2+ free), the “ϕfl × ε (fluorescence brightness)” value came to 707. In addition, the “selectivity of fluorescence response for Zn^2+” value in data set [3] is “selective for Zn^2+”. In addition, the “stability of intensity of labeled granules on repetitive imaging” value in the data set on MIN-6 β cells (MIN6 cells, imaged every 5 sec over ~30 min) is reported as “remains stable”. Further, the “increase of intensity from low Zn^2+ (TPEN) to high Zn^2+ state (Zn^2+/pyrithione)” value with MIN-6 β cells (MIN-6 cells, overall) was “about 12 fold”. In addition, the “increase of intensity from TPEN to Zn^2+/pyrithione, cell-to-cell variation” value in the data set on MIN-6 β cells (mean±SD, N=20 cells) came to 12.04±4.8 fold.

As a reminder, the Kd is a measure of binding affinity in units of concentration. A higher Kd goes with lower affinity.
